Source: the supplement of paper PMC10307832

What was measured:
Assay in all cases: relative viability (nuclei count vs DMSO), 5 days (fraction); higher = more cells survive
201T = tested on: 201T
Summary of the method: (§1)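 Each reported value is a median over duplicate plates. It expresses relative viability: treated-well nuclei count divided by vehicle-well nuclei count. Lung cancer cell lines in 1536-well plates were dosed by pin tool a day after seeding, alone with one drug or with a fixed anchor-drug dose plus five library-drug doses (not always all listed) in √10 steps, and nuclei were counted after 5 days.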

BEN = tested on: BEN
Summary of the method: as §1

EMC-BAC-2 = tested on: EMC-BAC-2
Summary of the method: as §1

HARA = tested on: HARA
Summary of the method: as §1

HCC-44 = tested on: HCC-44
Summary of the method: as §1

LCLC-103H = tested on: LCLC-103H
Summary of the method: as §1

LOU-NH91 = tested on: LOU-NH91
Summary of the method: as §1

NCI-H1395 = tested on: NCI-H1395
Summary of the method: as §1

NCI-H1993 = tested on: NCI-H1993
Summary of the method: as §1

NCI-H2023 = tested on: NCI-H2023
Summary of the method: as §1

NCI-H2087 = tested on: NCI-H2087
Summary of the method: as §1

NCI-H2126 = tested on: NCI-H2126
Summary of the method: as §1

NCI-H2347 = tested on: NCI-H2347
Summary of the method: as §1

NCI-H23 = tested on: NCI-H23
Summary of the method: as §1

NCI-H3122 = tested on: NCI-H3122
Summary of the method: as §1

NCI-H441 = tested on: NCI-H441
Summary of the method: as §1

NCI-H522 = tested on: NCI-H522
Summary of the method: as §1

NCI-H596 = tested on: NCI-H596
Summary of the method: as §1

NCI-H647 = tested on: NCI-H647
Summary of the method: as §1

NCI-H650 = tested on: NCI-H650
Summary of the method: as §1

NCI-H727 = tested on: NCI-H727
Summary of the method: as §1

NCI-H838 = tested on: NCI-H838
Summary of the method: as §1

Compound: O=c1cc(-c2cccc3c2Sc2ccccc2S3)oc(N2CCOCC2)c1 + CC(=O)Nc1cccc(-n2c(=O)n(C3CC3)c(=O)c3c(Nc4ccc(I)cc4F)n(C)c(=O)c(C)c32)c1 [Trametinib] (partner 0.02 µM)
- relative viability (201T; first compound 0.08 µM): 0.722
- relative viability (201T; first compound 0.253 µM): 0.735
- relative viability (201T; first compound 0.8 µM): 0.727
- relative viability (201T; first compound 2.53 µM): 0.673
- relative viability (201T; first compound 8 µM): 0.686
- relative viability (BEN; first compound 0.08 µM): 0.945
- relative viability (BEN; first compound 0.253 µM): 0.982
- relative viability (BEN; first compound 0.8 µM): 1.1
- relative viability (BEN; first compound 2.53 µM): 0.975
- relative viability (BEN; first compound 8 µM): 1.07
- relative viability (EMC-BAC-2; first compound 0.08 µM): 0.804
- relative viability (EMC-BAC-2; first compound 0.253 µM): 1.04
- relative viability (EMC-BAC-2; first compound 0.8 µM): 0.842
- relative viability (EMC-BAC-2; first compound 2.53 µM): 0.908
- relative viability (EMC-BAC-2; first compound 8 µM): 0.895
- relative viability (HARA; first compound 0.08 µM): 0.786
- relative viability (HARA; first compound 0.253 µM): 0.615
- relative viability (HARA; first compound 0.8 µM): 0.537
- relative viability (HARA; first compound 2.53 µM): 0.668
- relative viability (HARA; first compound 8 µM): 0.581
- relative viability (HCC-44; first compound 0.08 µM): 0.993
- relative viability (HCC-44; first compound 0.253 µM): 1.01
- relative viability (HCC-44; first compound 0.8 µM): 0.985
- relative viability (HCC-44; first compound 2.53 µM): 1.01
- relative viability (HCC-44; first compound 8 µM): 1.07
- relative viability (LCLC-103H; first compound 0.08 µM): 0.698
- relative viability (LCLC-103H; first compound 0.253 µM): 0.713
- relative viability (LCLC-103H; first compound 0.8 µM): 0.631
- relative viability (LCLC-103H; first compound 2.53 µM): 0.662
- relative viability (LCLC-103H; first compound 8 µM): 0.623
- relative viability (LOU-NH91; first compound 0.08 µM): 0.772
- relative viability (LOU-NH91; first compound 0.253 µM): 0.884
- relative viability (LOU-NH91; first compound 0.8 µM): 0.732
- relative viability (LOU-NH91; first compound 2.53 µM): 0.719
- relative viability (LOU-NH91; first compound 8 µM): 0.777
- relative viability (NCI-H1395; first compound 0.08 µM): 0.883
- relative viability (NCI-H1395; first compound 0.253 µM): 1.05
- relative viability (NCI-H1395; first compound 0.8 µM): 1.14
- relative viability (NCI-H1395; first compound 2.53 µM): 0.964
- relative viability (NCI-H1395; first compound 8 µM): 1.06
- relative viability (NCI-H1993; first compound 0.08 µM): 0.462
- relative viability (NCI-H1993; first compound 0.253 µM): 0.64
- relative viability (NCI-H1993; first compound 0.8 µM): 0.46
- relative viability (NCI-H1993; first compound 2.53 µM): 0.467
- relative viability (NCI-H1993; first compound 8 µM): 0.544
- relative viability (NCI-H2023; first compound 0.08 µM): 0.564
- relative viability (NCI-H2023; first compound 0.253 µM): 0.647
- relative viability (NCI-H2023; first compound 0.8 µM): 0.6
- relative viability (NCI-H2023; first compound 2.53 µM): 0.534
- relative viability (NCI-H2023; first compound 8 µM): 0.426
- relative viability (NCI-H2087; first compound 0.08 µM): 0.143
- relative viability (NCI-H2087; first compound 0.253 µM): 0.212
- relative viability (NCI-H2087; first compound 0.8 µM): 0.172
- relative viability (NCI-H2087; first compound 2.53 µM): 0.172
- relative viability (NCI-H2087; first compound 8 µM): 0.179
- relative viability (NCI-H2126; first compound 0.08 µM): 0.583
- relative viability (NCI-H2126; first compound 0.253 µM): 0.583
- relative viability (NCI-H2126; first compound 0.8 µM): 0.526
- relative viability (NCI-H2126; first compound 2.53 µM): 0.508
- relative viability (NCI-H2126; first compound 8 µM): 0.474
- relative viability (NCI-H2347; first compound 0.08 µM): 0.283
- relative viability (NCI-H2347; first compound 0.253 µM): 0.266
- relative viability (NCI-H2347; first compound 0.8 µM): 0.264
- relative viability (NCI-H2347; first compound 2.53 µM): 0.27
- relative viability (NCI-H2347; first compound 8 µM): 0.295
- relative viability (NCI-H23; first compound 0.08 µM): 0.334
- relative viability (NCI-H23; first compound 0.253 µM): 0.418
- relative viability (NCI-H23; first compound 0.8 µM): 0.349
- relative viability (NCI-H23; first compound 2.53 µM): 0.313
- relative viability (NCI-H23; first compound 8 µM): 0.317
- relative viability (NCI-H3122; first compound 0.08 µM): 0.259
- relative viability (NCI-H3122; first compound 0.253 µM): 0.299
- relative viability (NCI-H3122; first compound 0.8 µM): 0.314
- relative viability (NCI-H3122; first compound 2.53 µM): 0.193
- relative viability (NCI-H3122; first compound 8 µM): 0.292
- relative viability (NCI-H441; first compound 0.08 µM): 0.34
- relative viability (NCI-H441; first compound 0.253 µM): 0.527
- relative viability (NCI-H441; first compound 0.8 µM): 0.55
- relative viability (NCI-H441; first compound 2.53 µM): 0.465
- relative viability (NCI-H441; first compound 8 µM): 0.424
- relative viability (NCI-H522; first compound 0.08 µM): 0.725
- relative viability (NCI-H522; first compound 0.253 µM): 0.988
- relative viability (NCI-H522; first compound 0.8 µM): 0.724
- relative viability (NCI-H522; first compound 2.53 µM): 0.815
- relative viability (NCI-H522; first compound 8 µM): 0.734
- relative viability (NCI-H596; first compound 0.08 µM): 0.819
- relative viability (NCI-H596; first compound 0.253 µM): 0.925
- relative viability (NCI-H596; first compound 0.8 µM): 0.823
- relative viability (NCI-H596; first compound 2.53 µM): 0.934
- relative viability (NCI-H596; first compound 8 µM): 0.801
- relative viability (NCI-H647; first compound 0.08 µM): 0.452
- relative viability (NCI-H647; first compound 0.253 µM): 0.543
- relative viability (NCI-H647; first compound 0.8 µM): 0.405
- relative viability (NCI-H647; first compound 2.53 µM): 0.376
- relative viability (NCI-H647; first compound 8 µM): 0.418
- relative viability (NCI-H650; first compound 0.08 µM): 0.994
- relative viability (NCI-H650; first compound 0.253 µM): 1.03
- relative viability (NCI-H650; first compound 0.8 µM): 0.959
- relative viability (NCI-H650; first compound 2.53 µM): 0.901
- relative viability (NCI-H650; first compound 8 µM): 0.977
- relative viability (NCI-H727; first compound 0.08 µM): 0.367
- relative viability (NCI-H727; first compound 0.253 µM): 0.37
- relative viability (NCI-H727; first compound 2.53 µM): 0.311
- relative viability (NCI-H727; first compound 8 µM): 0.389
- relative viability (NCI-H838; first compound 0.08 µM): 0.462
- relative viability (NCI-H838; first compound 0.253 µM): 0.673
- relative viability (NCI-H838; first compound 0.8 µM): 0.49
- relative viability (NCI-H838; first compound 2.53 µM): 0.502
- relative viability (NCI-H838; first compound 8 µM): 0.47
